Results taken from US9328099B2, “Cyanomethylpyrazole carboxamides as janus kinase inhibitors” (Merck Sharp & Dohme Corp., priority 2011, dated 2016).
Where two headings read alike, the source gives them in different places.

What was measured:
JAK2 = JAK2 (Homo sapiens (Human), UniProt O60674); test: Jak Biochemical HTRF Assay, JAK2
Text: (§1) Jak Biochemical HTRF Assay Protocol
(§2) Subsequent reagent additions employed an Agilent Bravo.

JAK1 = JAK1 (Homo sapiens (Human), UniProt P23458); test: Jak Biochemical HTRF Assay, JAK1; details: read-out: JAK1 IC50
JAK1, sequence (P23458 875-1153): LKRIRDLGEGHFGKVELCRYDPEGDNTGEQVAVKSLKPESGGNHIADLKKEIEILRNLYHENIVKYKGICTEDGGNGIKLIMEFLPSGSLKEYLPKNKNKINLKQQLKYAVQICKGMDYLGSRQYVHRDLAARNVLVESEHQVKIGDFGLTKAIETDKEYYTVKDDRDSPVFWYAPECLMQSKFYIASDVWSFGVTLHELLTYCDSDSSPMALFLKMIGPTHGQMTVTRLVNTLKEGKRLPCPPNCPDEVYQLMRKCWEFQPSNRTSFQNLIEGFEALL
Text: as §1, §2

[1] = HTRF biochemical assay, GST-tagged catalytic domain, top concentration tested […]

JAK2, sequence (O60674 849-1124): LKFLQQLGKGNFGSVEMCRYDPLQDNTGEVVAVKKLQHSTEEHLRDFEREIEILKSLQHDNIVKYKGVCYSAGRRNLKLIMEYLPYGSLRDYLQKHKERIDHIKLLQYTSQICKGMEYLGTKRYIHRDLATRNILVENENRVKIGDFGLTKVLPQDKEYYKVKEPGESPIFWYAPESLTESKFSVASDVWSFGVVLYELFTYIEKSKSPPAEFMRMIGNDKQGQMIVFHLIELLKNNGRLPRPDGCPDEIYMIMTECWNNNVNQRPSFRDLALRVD

Row | IC50 (JAK2; [1]) | IC50 (JAK1; [1]) | SMILES | IC50 (JAK2) | IC50 (JAK1)
1 |  |  | N#CC[C@]1(n2cc(C(N)=O)c(Nc3ccccc3)n2)CC[C@H](C(=O)NCC(F)(F)F)CC1 [Example 45-2, cis or trans 1-{1-(cyanomethyl)-4-[(2,2,2-trifluoroethyl)carbamoyl]cyclohexyl}-3-(phenylamino)-1H-pyrazole-4-carboxamide] | 1480 nM | 378 nM
2 | 0.1 nM | 0.03 nM | N#CC[C@@]1(n2cc(C(N)=O)c(Nc3ccnc(F)c3)n2)CCN(C(=O)OCC(F)F)C[C@@H]1F [Example 46] |  | 
